Where a name gives a salt, the structure may show the parent alone.
What was measured:
Assay type in all cases: cell-based
[1] = test system: SARS-CoV-2; assay: microbe, parasite or virus in culture; conditions: Severe acute respiratory syndrome coronavirus 2, Vero C1008, 48 h, read-out: Inhibiting rate, %, 3 μM; Vero-E6, MOI 0.05, 48 h
[2] = Cytotoxicity test on Vero-E6 cells (CCK-8); conditions: African green monkey, 48 h, read-out: CC50 (50% cytotoxic concentration)
Procedure: (§1) 2.1 Experimental Groups: • 1) Mefuparib hydrochloride (CVL218) group • 2) DMSO control group • 3) Olaparib group • 4) Cell control group: containing only cells, without adding drugs • 5) Blank control group (only medium without cells)
(§2) Mefuparib hydrochloride was obtained from Pukang (Shanghai) Health Technology Co., Ltd., with a purity of >99.0%. It was dissolved in DMSO and then diluted in gradients according to Table 4 below (the maintenance solution was DMEM medium). Serial dilutions were performed for DMSO according to the same dilution gradients.
(§3) Vero-E6 cells were seeded into 96-well culture plates at 1×10^4 cells/well, and cultured in DMEM containing 10% fetal bovine serum for 16 hours to become 80% pellets, then the cell culture medium was aspirated and discarded from each well, the cells were washed once with sterile PBS, and different drugs (200 μl/well) diluted in the cell maintenance solution were added to each well according to the experimental groups, with 3 duplicate wells set up for each group, and then the wells were placed in a 37° C., 5% CO2 incubator for 48 h.
(§4) For the DMSO control group, DMSO diluted with the cell maintenance solution to the corresponding concentration was added, and for the cell control group, 200 μl of the cell maintenance solution was added. For the blank control group, only cell maintenance solution without cells was added.
(§5) 2.3.2 Detection of toxicity of mefuparib hydrochloride and Olaparib on Vero-E6 The cell state was observed and recorded under an inverted microscope, and the toxicity of the drug to Vero-E6 cells was detected according to the operation instructions of the CCK-8 kit: 20 μl of CCK-8 solution was added to all experimental wells and control wells, and the cell culture plate was placed in a 37° C., 5% CO2 incubator for 1 hour, and then its absorbance value at the wavelength of 450 nm was measured using a multifunctional microplate reader.

[3] = test system: Vero-E6 cells; assay: Cytotoxicity test on Vero-E6 cells (CCK-8); conditions: 30 μM
Procedure: as §1, §2, §3, §4, §5

| SMILES | inhibition at 3 µM [1] | CC50 at 48 h [2] | Inhibitory effect on the cells (toxicity) [3] |
| --- | --- | --- | --- |
| CCOC(=O)C1=C[C@@H](OC(CC)CC)[C@H](NC(C)=O)[C@@H](N)C1 [Oseltamivir] | -13.5% | – | – |
| CC(=O)N[C@H]1[C@H]([C@H](O)[C@H](O)CO)OC(C(=O)O)=C[C@@H]1N=C(N)N [Zanamivir] | -10.7% | – | – |
| CNCc1ccc(-c2cc3cc(F)cc(C(N)=O)c3o2)cc1 [mefuparib hydrochloride] | – | ~92 µM | no inhibitory effect on the cells |
